Test results published in patent US20250101383A1, “METHODS AND COMPOSITIONS FOR CARDIAC MODELS” (Sanford Burnham Prebys Medical Discovery Institute, priority 2023, published 2025).

What was measured:
[1] = system: hiPSC-ACMs (atrial-like cardiomyocytes); assay: Arrhythmia assay and drug treatment in ACMs (arrhythmia index, AI); format: cell-based, human; conditions: for percentage of cells with AI values >20: control 4%
Method: To test the platform's ability to identify APD modulators, ACMs of the present disclosure were infused with isoproterenol, a non-selective β-adrenergic agonist, known to both shorten APD and increase beat rate in hiPSC-CMs. […] Consistent with median APD75 values, escalating doses of isoproterenol (1 and 9 μM) led to an increase of APD75 KS-D value to ˜0.4 and 0.7 respectively, as compared to control (FIG. 5C). Similarly, to quantify cellular manifestations of arrhythmia, an arrhythmia index (AI) was developed that quantifies beat-to-beat interval irregularities as a metric for arrhythmically beating cells (FIG. 9). In this context, AP trains with AI values lower than 20 were determined to describe regular beating patterns, while AP train with AI values >20 mark were determined to describe irregular beating patterns (FIGS. 10A-E). Finally, to benchmark the platform for arrhythmia-associated phenotypes, the role of dofetilide, a class III anti-arrhythmic that selectively blocks the rapid component of the delayed rectifier outward potassium, was tested.
24 hours post-transfection, 2,000 primary human fibroblasts were added per well to the hiPSC-ACMs. 48 hours later (the day of the imaging), cells were dyed with the voltage sensitive dye Vf2.1 Cl as described above, then treated with 50 μL of 2× solution of isoproterenol (1 μM final) diluted in Tyrode alone and in combination with 2× solution of Verapamil (30 nM final), diluted in Tyrode at the 5th wash. After 20 minutes of compound incubation time, cells were imaged, and single-cell traces analyzed as described previously.

[2] = system: hiPSC-ACMs (atrial-like cardiomyocytes); assay: Voltage assay in ACMs (single-cell APD); format: cell-based, human; conditions: for median APD75: untreated 121.3 ms
Text: Next, to facilitate the characterization of AF-associated arrhythmia phenotypes in ACMs, an imaging platform was developed that automatically tracks and quantifies action potential (AP) and rhythm parameters in HT with single cell resolution (FIGS. 4A-D). To retrieve AP and rhythm parameters, ACMs of the present disclosure were co-labeled with a voltage dye (VF2.1Cl) and a nuclear dye (Hoechst 33258) (McKeithan et al., 2017). For each condition, one image of the Hoechst dye was collected followed by a 5-second acquisition of the voltage dye channel at 100 Hz. Next, using a custom algorithm developed on the ImageXpress®, each cell in the field of view was segmented using the Hoechst topological information and each cell mask was propagated to the “voltage dye channel”, thereby enabling the quantification of voltage-dependent fluorescence variation over time with single-cell resolution. To retrieve the electrophysiological parameters, a cloud-based trace analysis application was developed that automatically processes each AP trace and retrieves median and standard deviation values, for APD-10, 25, 50, 75, 90; T25-75, T75-25; Vmax up and down; beat rate; peak-to-peak interval; and rhythm regularity index; for each cell. This platform enabled the automatic recording, quantification, and analysis of AP and rhythm parameters in less than 2 minutes per condition.
Voltage assay was performed using the labeling protocol described herein. Briefly, hiPSC-ACMs at day 25 of differentiation were dissociated with TrypLE Select 10× for up to 10 min and the action of TrypLE was neutralized with RPMI supplemented with 10% FBS. Cells were resuspended in RPMI with 2% KOSR (Gibco) and 2% B27 50× with vitamin A (Life Technologies) supplemented with 2 μM Thiazovivin and plated at a density of 6,000 cells per well in a Matrigel-coated 384-well plate. hiPSC-ACMs were then transfected with siRNAs directed against AFib-associated genes (ON-TARGETplus Human, siGATA4: J-008244-05-0002, siGATA5: J-010324-06-0005, siGATA6: J-008351-06-0005, siGJA1: J-011042-05-0002, siGJA5: J-017368-05-0002, siHAND2: J-008698-06-0005, siHCN4: J-006203-05-0002, siKCNA5: J-006215-06-0005, siKCND3: L-006226-00-0005, siKCNJ5: J-006250-06-0002, siKCNN3: J-006270-06-0002, siNKX2-5: J-019795-07-0002, siNKX2-6: J-025793-17-0002, siNPPA: J-012729-05-0002, siPITX2: J-017315-05-0005, siPLN: J-011754-05-0005, siSH3PXD2A: J-006657-07-0002, siSYNE2: J-019259-09-0002, siTBX5: J-013410-5-0002, siZFHX3: J-015410-5-0002) using lipofectamine RNAi Max (ThermoFisher). […] Fluorescence over time quantification and trace analysis were quantified using custom software packages. […]

[3] = system: Id1-induced CPs; assay: Generation of atrial-like cardiomyocytes from Id1-induced cardiac progenitors; format: cell-based, human; conditions: retinoic acid 300 nM single dose, day 12
Method: To study the molecular basis of chamber-specific electrical disorders such as atrial fibrillation, Id1-overexpressing cardiac progenitors (CPs) were used to generate ACMs (Cunningham et al., 2017, and Yu et al., 2018). Treatment of Id1-induced CPs with a single dose of retinoic acid (300 nM) efficiently promoted the generation of atrial-like, NR2F2+ beating CMs (˜80% were NR2F2+, ACTN2+) (FIG. 1 and FIGS. 2A-B). Consistent with an atrial-like identity, induced ACMs also expressed atria-enriched (Devalla et al., 2015; Uhlen et al., 2015) transcription factors (NR2F2, TBX5, ZNF385B), ion channel genes KCNA5 (encoding Kv1.5) and KCNJ3 (encoding Kir 3.1), ligands (NPPA, NPPB) and receptors (EGR1/2, PDGFRA), at both day 12 and at day 25 of differentiation (FIG. 2C and FIGS. 6A-B).
ACMs for the study were developed by dissociating Id1 overexpressing hiPSCsl with 0.5 mM EDTA (ThermoFisher Scientific) in PBS without CaCl2 and MgCl2 (Corning) for 7 min at room temperature. hiPSC were resuspended in mTeSR-1 media (StemCell Technologies) supplemented with 2 μM Thiazovivin (StemCell Technologies) and plated in a Matrigel-coated 12-well plate at a density of 3×10^5 cells per well. […]

[4] = system: Drosophila heart; assay: Octopamine-challenge heart assay; format: in vivo; conditions: for mean nMAD (arrhythmia) post-octopamine pacing: 100 nM OA
Text: Cardiac phenotypes of middle-aged (3-weeks old) female flies from each cross were characterized using denervated, semi-intact preparations as previously described in (Ocorr et al., 2009; Vogler and Ocorr, 2009). Briefly, hearts from 20-25 flies were examined for each genotype and age. Adult female flies were exposed to FlyNap, a triethylamine-based anesthetic, for at least one minute until no movement was detected. Hearts were exposed by dissection in room temperature, air bubbled, artificial hemolymph (AHL, Ocorr et al, 2007). High-speed video recordings were filmed with a Hamamatsu EM-CCD camera and using HC Image capture software (Hamamatsu Corp). Heart movements were analyzed using the Semi-automated Optical Heartbeat Analysis (SOHA) software (sohasoftware.com). Movies were recorded at speeds of 140+ fps with pixel resolution ˜ 1 micron/pixel allowing very precise temporal and spatial measurements, including heart period (HP) and rate (1/HP), diastolic and systolic intervals, and fractional shortening/contractility. To quantitate arrhythmia, median absolute deviation (MAD) was first calculated. The median value of the absolute deviations of each heart period (Xi) from the median heart period ((X)) was calculated and then multiplied by a constant (k=1.4826 assuming data is normally distributed).
To normalize the MAD index (nMAD), the MAD value was divided by the median heart period. Qualitative records of heart wall movements (M-modes/kymographs) were produced by electronically excising a 1 pixel horizontal “slice” from each movie frame and aligning them horizontally providing an edge trace displaying heart wall movements in the X-axis over time along the Y-axis (Ocorr et al., 2009; Ocorr et al., 2007c).
Octopamine (OA) pacing experiments were performed in situ on the semi-intact fly preparation. OA (Sigma-Aldrich #00250) stock solution (10 mM) was freshly prepared by dissolving in water and was further diluted in AHL. A dose-response curve was generated using doses ranging from 0.1 nM OA to 500 nM OA (Supplemental FIG. 5A). The increase in heart rate was maximal at 100 nM OA, which was the dose used for all subsequent pacing experiments (Supplemental FIG. 5B). Following dissection, hearts were first allowed to equilibrate in fresh AHL for 15 min and 30 sec movies of heart function were recorded. Heart function was recorded three times per fly: 1) pre-drug exposure, 2) after a 15-minute exposure to 100 nM OA, and 3) after a 15-minute post drug exposure recovery period. A second set of hearts exposed only to vehicle (AHL) were filmed at the same three 15-minute intervals to serve as time controls.

[5] = acute OA exposure, control and KD lines

Structure (SMILES): CC(C)NCC(O)c1ccc(O)c(O)c1 (stereo not shown) [isoproterenol]
- percentage of arrhythmic cells ([1]; isoproterenol alone): did not increase
- APD75 KS-D value as compared to control ([2]; isoproterenol 1 μM): ~0.4
- median APD75 ([2]; isoproterenol 1 μM): 108.6 ms
- APD75 KS-D value as compared to control ([2]; isoproterenol 9 μM): 0.7
- median APD75 ([2]; isoproterenol 9 μM): 91.2 ms

Structure (SMILES): COc1ccc(CCN(C)CCCC(C#N)(c2ccc(OC)c(OC)c2)C(C)C)cc1OC (stereo not shown) [verapamil]
- fold less arrhythmic than DMSO control ([1]; verapamil 30 nM, PLN KD+Fib+isoproterenol): 1.7 fold
- percentage of arrhythmic cells ([1]; verapamil 30 nM, PLN KD+Fib+isoproterenol, DMSO control 31.2%): 18%

Structure (SMILES): CN(CCOc1ccc(NS(C)(=O)=O)cc1)CCc1ccc(NS(C)(=O)=O)cc1 [dofetilide]
- proportion of arrhythmic cells (AI>20) ([1]; dofetilide 33 nM, control 4.0%): 3.9%
- KS-D value of AI distribution vs control ([1]; dofetilide 100 nM): 0.7
- percentage of cells with AI values >20 ([1]; dofetilide 100 nM): 67%
- percentage of cells with AI values >20 ([1]; dofetilide 100 nM, listed as Dofetilide): 67.0%
- AI as compared to control ([1]; low dose of dofetilide (33 nM)): reduced AI

Structure (SMILES): CC1=C(/C=C/C(C)=C/C=C/C(C)=C/C(=O)O)C(C)(C)CCC1 [retinoic acid]
- NR2F2+, ACTN2+ cells [3]: ~80%

Structure (SMILES): NCC(O)c1ccc(O)cc1 (stereo not shown) [octopamine]
- mean nMAD (arrhythmia) post-octopamine pacing ([4]; PLN/SclA KD hearts): 0.1342
- mean nMAD (arrhythmia) post-octopamine pacing ([4]; control hearts): 0.0379
- heart rate [4, 5]: significantly elevated heart rate
- systolic intervals [4, 5]: significantly shortening systolic intervals
- dose of maximal effect on heart rate ([4]; doses 0.1 nM to 500 nM OA): 100 nM
- contraction and relaxation intervals ([4]; in the presence of OA): significantly shortened
